Assays:
[1] = test system: wheat; experiment: Test A preemergence; type: in vivo, Triticum aestivum; details: preemergence, 125 g ai/ha, visual injury approx. 10 days after treatment
Procedure, shortened: (§1)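 Pre- and postemergence greenhouse test; loam+sand; cpd in non-phytotox. solvent/surfactant; post at 1–2 leaf, 2–10 cm; visual score ~10 d, 0 = none, 100 = complete control.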

[2] = test system: corn; experiment: Test A postemergence; type: in vivo, Zea mays; details: Postemergence
Procedure, shortened: as §1

[3] = test system: barnyardgrass; experiment: Test A postemergence; type: in vivo, Echinochloa crus-galli; details: Postemergence
Procedure, shortened: as §1

[4] = test system: sedge, umbrella; experiment: Test B flood; type: in vivo, Cyperus difformis; details: 250 g ai/ha, visual rating on 0 to 100 scale (0 no effect, 100 complete control), 13 to 15 days
Procedure, shortened: (§2)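 Paddy-water application: seedlings at 2-leaf stage, flood depth 3 cm maintained for the test duration. Evaluation after 13–15 days in the greenhouse by eye relative to controls; 0–100 scale.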

[5] = test system: pigweed; experiment: Test A preemergence; type: in vivo, Amaranthus retroflexus; details: preemergence, 125 g ai/ha, visual injury approx. 10 days after treatment
Procedure, shortened: as §1

[6] = test system: morningglory; experiment: Test A preemergence; type: in vivo, Ipomoea spp.; details: preemergence, 125 g ai/ha, visual injury approx. 10 days after treatment
Procedure, shortened: as §1

[7] = test system: barnyardgrass; experiment: Test B flood; type: in vivo, Echinochloa crus-galli; details: 250 g ai/ha, visual rating on 0 to 100 scale (0 no effect, 100 complete control), 13 to 15 days
Procedure, shortened: as §2

[8] = test system: foxtail, giant; experiment: Test A postemergence; type: in vivo, Setaria faberii; details: Postemergence
Procedure, shortened: as §1

[9] = test system: corn; experiment: Test A preemergence; type: in vivo, Zea mays; details: preemergence; for Corn plant response rating (0 to 100 scale): 125 g ai/ha, visual injury approx. 10 days after treatment; for Corn plant response rating: 500 g ai/ha, visual injury after approx. 10 days, 0 to 100 scale (0 no effect, 100 complete control)
Procedure, shortened: as §1

[10] = test system: morningglory; experiment: Test A postemergence; type: in vivo, Ipomoea spp.; details: Postemergence
Procedure, shortened: as §1

[11] = test system: barnyardgrass; experiment: Test A preemergence; type: in vivo, Echinochloa crus-galli; details: preemergence; for Barnyardgrass plant response rating (0 to 100 scale, 0 is no effect, 100 is complete control): 125 g ai/ha, visual injury approx. 10 days after treatment; for Barnyardgrass plant response rating: 500 g ai/ha, visual injury after approx. 10 days, 0 to 100 scale (0 no effect, 100 complete control)
Procedure, shortened: as §1

[12] = test system: crabgrass, large; experiment: Test A preemergence; type: in vivo, Digitaria sanguinalis; details: preemergence; for Crabgrass, Large plant response rating (0 to 100 scale): 125 g ai/ha, visual injury approx. 10 days after treatment; for Crabgrass, Large plant response rating: 500 g ai/ha, visual injury after approx. 10 days, 0 to 100 scale (0 no effect, 100 complete control)
Procedure, shortened: as §1

[13] = test system: wheat; experiment: Test A postemergence; type: in vivo, Triticum aestivum; details: Postemergence
Procedure, shortened: as §1

[14] = test system: ducksalad; experiment: Test B flood; type: in vivo, Heteranthera limosa; details: 250 g ai/ha, visual rating on 0 to 100 scale (0 no effect, 100 complete control), 13 to 15 days
Procedure, shortened: as §2

[15] = test system: crabgrass, large; experiment: Test A postemergence; type: in vivo, Digitaria sanguinalis; details: Postemergence
Procedure, shortened: as §1

[16] = test system: velvetleaf; experiment: Test A preemergence; type: in vivo, Abutilon theophrasti; details: preemergence, 125 g ai/ha, visual injury approx. 10 days after treatment
Procedure, shortened: as §1

[17] = test system: pigweed; experiment: Test A postemergence; type: in vivo, Amaranthus retroflexus; details: Postemergence
Procedure, shortened: as §1

[18] = test system: velvetleaf; experiment: Test A postemergence; type: in vivo, Abutilon theophrasti; details: Postemergence
Procedure, shortened: as §1

[19] = test system: foxtail, giant; experiment: Test A preemergence; type: in vivo, Setaria faberii; details: preemergence; for Foxtail, Giant plant response rating (0 to 100 scale): 125 g ai/ha, visual injury approx. 10 days after treatment; for Foxtail, Giant plant response rating: 500 g ai/ha, visual injury after approx. 10 days, 0 to 100 scale (0 no effect, 100 complete control)
Procedure, shortened: as §1

[20] = test system: rice; experiment: Test B flood; type: in vivo, Oryza sativa; details: 250 g ai/ha, visual rating on 0 to 100 scale (0 no effect, 100 complete control), 13 to 15 days
Procedure, shortened: as §2

[21] = 125 g ai/ha, 0 to 100 scale, 0 no effect, 100 complete control
[22] = 500 g ai/ha, 0 to 100 scale (0 no effect, 100 complete control)

Compound | Wheat plant response rating (0 to 100 scale) [1] | Corn plant response rating [2, 21] | Corn plant response rating [2, 22] | Barnyardgrass plant response rating [3, 21] | Barnyardgrass plant response rating [3, 22] | Plant response rating, Sedge, Umbrella [4] | Pigweed plant response rating (0 to 100 scale) [5] | Morningglory plant response rating (0 to 100 scale) [6] | Plant response rating, Barnyardgrass [7] | Foxtail, Giant plant response rating [8, 21] | Foxtail, Giant plant response rating [8, 22] | Corn plant response rating (0 to 100 scale) [9] | Corn plant response rating [9] | Morningglory plant response rating [10, 21] | Morningglory plant response rating [10, 22] | Barnyardgrass plant response rating (0 to 100 scale, 0 is no effect, 100 is complete control) [11] | Barnyardgrass plant response rating [11] | Crabgrass, Large plant response rating (0 to 100 scale) [12] | Crabgrass, Large plant response rating [12] | Wheat plant response rating [13, 21] | also measured
CCc1cc(C(=O)NCC(F)(F)F)nn1Oc1cccc(C(F)(F)F)c1 [Compound 217] | 0 | 0 | 20 | 0 | 20 | 0 | 20 | 0 | 0 | 0 | 30 | 0 | 0 | 20 | 70 | 0 | 20 | 50 | 90 | 0 | Wheat plant response rating [13, 22]: 0; Plant response rating, Ducksalad [14]: 0; Crabgrass, Large plant response rating [15, 21]: 20; Crabgrass, Large plant response rating [15, 22]: 70; Velvetleaf plant response rating (0 to 100 scale) [16]: 0; Pigweed plant response rating [17, 21]: 20; Pigweed plant response rating [17, 22]: 70; Velvetleaf plant response rating [18, 21]: 0; Velvetleaf plant response rating [18, 22]: 30; Foxtail, Giant plant response rating (0 to 100 scale) [19]: 0; Foxtail, Giant plant response rating [19]: 40; Plant response rating, Rice [20]: 0
CCc1cc(C(=O)NCC(F)(F)F)nn1Oc1cccc(C(F)(F)F)c1 [Compound 218] | 0 | 10 | 20 | 0 | 20 | 0 | 0 | 0 | 0 | 20 | 30 | 0 | 0 | 50 | 100 | 0 | 40 | 10 | 80 | 0 | Wheat plant response rating [13, 22]: 10; Plant response rating, Ducksalad [14]: 0; Crabgrass, Large plant response rating [15, 21]: 20; Crabgrass, Large plant response rating [15, 22]: 40; Velvetleaf plant response rating (0 to 100 scale) [16]: 0; Pigweed plant response rating [17, 21]: 50; Pigweed plant response rating [17, 22]: 80; Velvetleaf plant response rating [18, 21]: 0; Velvetleaf plant response rating [18, 22]: 40; Foxtail, Giant plant response rating (0 to 100 scale) [19]: 0; Foxtail, Giant plant response rating [19]: 40; Plant response rating, Rice [20]: 0
CCCNC(=O)c1cc(CC)n(Oc2cccc(OC(F)(F)F)c2)n1 [Compound 219] | 0 | 10 | 20 | 10 | 40 | 75 | 0 | 0 | 0 | 20 | 60 | 0 | 0 | 10 | 70 | 0 | 20 | 40 | 90 | 0 | Wheat plant response rating [13, 22]: 10; Plant response rating, Ducksalad [14]: 30; Crabgrass, Large plant response rating [15, 21]: 20; Crabgrass, Large plant response rating [15, 22]: 70; Velvetleaf plant response rating (0 to 100 scale) [16]: 0; Pigweed plant response rating [17, 21]: 20; Pigweed plant response rating [17, 22]: 60; Velvetleaf plant response rating [18, 21]: 0; Velvetleaf plant response rating [18, 22]: 90; Foxtail, Giant plant response rating (0 to 100 scale) [19]: 0; Foxtail, Giant plant response rating [19]: 20; Plant response rating, Rice [20]: 0
COCc1cc(C(=O)NCC(F)(F)F)nn1Cc1cc(C(F)(F)C(F)(F)F)nn1C [Compound 225] | 0 | 10 | 30 | 10 | 30 | 50 | 20 | 30 | 0 | 10 | 60 | 0 | 20 | 10 | 60 | 10 | 80 | 20 | 90 | 0 | Wheat plant response rating [13, 22]: 0; Plant response rating, Ducksalad [14]: 55; Crabgrass, Large plant response rating [15, 21]: 40; Crabgrass, Large plant response rating [15, 22]: 70; Velvetleaf plant response rating (0 to 100 scale) [16]: 0; Pigweed plant response rating [17, 21]: 0; Pigweed plant response rating [17, 22]: 0; Velvetleaf plant response rating [18, 21]: 20; Velvetleaf plant response rating [18, 22]: 30; Foxtail, Giant plant response rating (0 to 100 scale) [19]: 20; Foxtail, Giant plant response rating [19]: 70; Plant response rating, Rice [20]: 0
CCc1cc(C(=O)NCC(F)(F)F)nn1Cc1cc(C(F)(F)C(F)(F)F)nn1C [Compound 227] | 10 | 30 | 70 | 40 | 80 | 95 | 90 | 10 | 80 | 70 | 90 | 0 | 50 | 70 | 100 | 40 | 100 | 100 | 100 | 20 | Wheat plant response rating [13, 22]: 70; Plant response rating, Ducksalad [14]: 100; Crabgrass, Large plant response rating [15, 21]: 60; Crabgrass, Large plant response rating [15, 22]: 90; Velvetleaf plant response rating (0 to 100 scale) [16]: 30; Pigweed plant response rating [17, 21]: 100; Pigweed plant response rating [17, 22]: 100; Velvetleaf plant response rating [18, 21]: 40; Velvetleaf plant response rating [18, 22]: 100; Foxtail, Giant plant response rating (0 to 100 scale) [19]: 70; Foxtail, Giant plant response rating [19]: 100; Plant response rating, Rice [20]: 0
